target: T1, H^+/K^+-ATPase (Sus scrofa, UniProt P19156); assay: Proton, potassium-adenosine triphosphatase (H+/K+-ATPase) inhibitory activity test; type: biochemical; conditions: pig stomach mucous membrane microsome fraction; pH 6.5, 37° C.; malachite green colorimetry at 610 nm; read-out: IC50 (50% inhibitory concentration of proton and potassium-adenosine triphosphatase)
T1 construct: The obtained microsome fraction was used as the H^+/K^+-ATPase standard product; from tissue; host or cells: pig stomach (corpus ventriculi) mucous membrane microsome fraction
T1 sequence (P19156 2-1034 limits assumed): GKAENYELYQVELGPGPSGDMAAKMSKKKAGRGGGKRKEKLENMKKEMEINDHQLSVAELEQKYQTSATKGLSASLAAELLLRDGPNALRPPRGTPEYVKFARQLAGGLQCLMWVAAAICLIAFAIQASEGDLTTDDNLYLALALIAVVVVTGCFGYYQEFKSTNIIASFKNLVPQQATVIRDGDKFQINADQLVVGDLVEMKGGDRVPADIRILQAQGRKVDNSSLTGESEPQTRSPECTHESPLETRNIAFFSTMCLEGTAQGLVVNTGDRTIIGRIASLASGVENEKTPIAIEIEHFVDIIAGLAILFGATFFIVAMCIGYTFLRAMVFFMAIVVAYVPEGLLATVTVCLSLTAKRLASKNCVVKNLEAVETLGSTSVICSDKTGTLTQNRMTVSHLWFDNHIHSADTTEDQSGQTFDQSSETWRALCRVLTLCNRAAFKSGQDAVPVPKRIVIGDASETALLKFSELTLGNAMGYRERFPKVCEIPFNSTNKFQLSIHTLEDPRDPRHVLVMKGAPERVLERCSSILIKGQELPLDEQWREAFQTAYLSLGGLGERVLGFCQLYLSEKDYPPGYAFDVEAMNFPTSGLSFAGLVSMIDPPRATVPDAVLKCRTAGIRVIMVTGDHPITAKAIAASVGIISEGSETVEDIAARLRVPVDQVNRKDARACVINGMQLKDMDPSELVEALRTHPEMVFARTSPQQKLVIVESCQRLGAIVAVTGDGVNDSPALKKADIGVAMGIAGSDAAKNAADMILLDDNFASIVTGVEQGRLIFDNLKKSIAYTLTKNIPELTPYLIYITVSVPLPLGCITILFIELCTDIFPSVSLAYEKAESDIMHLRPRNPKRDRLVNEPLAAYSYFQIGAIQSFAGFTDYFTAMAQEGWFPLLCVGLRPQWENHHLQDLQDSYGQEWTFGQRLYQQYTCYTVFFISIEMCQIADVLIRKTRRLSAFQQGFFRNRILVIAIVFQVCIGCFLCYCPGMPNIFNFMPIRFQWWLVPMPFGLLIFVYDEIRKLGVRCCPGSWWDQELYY
T1 sequence (P18434 whole entry partner): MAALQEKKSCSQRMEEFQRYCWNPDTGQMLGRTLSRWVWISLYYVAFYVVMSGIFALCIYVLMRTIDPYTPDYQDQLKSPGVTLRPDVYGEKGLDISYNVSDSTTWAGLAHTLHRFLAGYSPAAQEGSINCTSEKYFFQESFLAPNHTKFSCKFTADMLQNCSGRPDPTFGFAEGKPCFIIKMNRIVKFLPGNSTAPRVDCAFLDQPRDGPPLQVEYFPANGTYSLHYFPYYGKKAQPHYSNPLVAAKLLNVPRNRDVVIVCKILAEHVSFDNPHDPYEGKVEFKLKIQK
Description: Proton, Potassium-Adenosine Triphosphatase (H^+/K^+-ATPase) Inhibitory Activity Test
According to the method of Wallmark et al. [Biochem. Biophys. Acta., 728, 31 (1983)], a stomach mucous membrane microsome fraction was prepared from the stomach of a pig. First, the corpus ventriculi was isolated, washed with tap water, immersed in 3M brine, and the surface of the mucous membrane was wiped with a paper towel. The stomach mucous membrane was separated, chopped, and homogenized using polytron (Kinematica) in 0.25 M saccharose solution (pH 6.8) containing 1 mM EDTA and 10 mM tris hydrochloric acid. The obtained homogenate was centrifuged at 20,000×g for 30 min, and the supernatant was centrifuged at 100,000×g for 90 min. After suspending the precipitated part in a 0.25 M saccharose solution, layered on a 0.25 M saccharose solution containing 7.5% Ficoll, and centrifuged at 100,000×g for 5 hr. The fraction of the interface between the both layers was collected and washed by centrifugation with a 0.25 M saccharose solution.
The obtained microsome fraction was used as the H^+/K^+-ATPase standard product.
A test compound (5 μL) dissolved in a 10% aqueous dimethyl sulfoxide solution was added to 40 μL of a 50 mM Hepes-tris buffer (5 mM magnesium chloride, 10 mM potassium chloride, 10 μM valinomycin, pH=6.5) containing 2.5 μg/mL (based on the protein concentration) of an enzyme standard product, and the mixture was incubated at 37° C. for 30 min. The enzyme reaction was started by the addition of 5 μL of a 2 mM adenosine triphosphate tris salt solution (50 mM Hepes-tris buffer (5 mM magnesium chloride, pH 6.5)). The enzyme reaction was carried out at 37° C. for 20 min, and quenched by adding 15 μL of malachite green solution (a mixture of 0.12% malachite green sulfuric acid (5N) solution, 7.5% ammonium molybdate and 11% Tween 20 at a ratio of 100:25:2). The mixture was stood at room temperature for 15 min, and the resulting reaction product of inorganic phosphorus and malachite green was colorimetrically determined at a wavelength of 610 nm. The amount of inorganic phosphoric acid in a reaction solution free of potassium chloride was measured in the same manner. The H^+/K^+-ATPase activity was measured by subtracting the obtained amount from the amount of inorganic phosphoric acid in the presence of potassium chloride. The inhibitory rate (%) was determined from the control activity value and the activity value at each concentration of the test compound, and 50% inhibitory concentration (IC50) of proton and potassium-adenosine triphosphatase was determined.

Going from Cc1cc(F)ccc1CNc1nccc2c(CO)c(C)n(CC(C)C)c12 [Example 65, {7-[(4-fluoro-2-methylbenzyl)amino]-1-isobutyl-2-methyl-1H-pyrrolo[2,3-c]pyridin-3-yl}methanol] to CCCn1c(C)c(C)c2ccnc(NCc3ccc(F)cc3C)c21 [Example 26, N-(4-fluoro-2-methylbenzyl)-2,3-dimethyl-1-propyl-1H-pyrrolo[2,3-c]pyridine-7-amine], the IC50 rises from 0.0032 µM to 0.024 µM (7.5-fold). The first is the more potent here.

Going from Cc1[nH]c2c(NC3CCc4ccccc43)nccc2c1C (centres unmarked) [Example 16, N-(2,3-dihydro-1H-inden-1-yl)-2,3-dimethyl-1H-pyrrolo[2,3-c]pyridine-7-amine] to Cc1[nH]c2c(NCc3ccccc3)nccc2c1C [Example 12, N-benzyl-2,3-dimethyl-1H-pyrrolo[2,3-c]pyridine-7-amine], the IC50 rises from 0.0098 µM to 0.027 µM (2.8-fold).

First: Cc1cccc(C)c1CNc1nccc2c(C)c(C)[nH]c12 [Example 14, N-(2,6-dimethylbenzyl)-2,3-dimethyl-1H-pyrrolo[2,3-c]pyridine-7-amine]
Second: Cc1[nH]c2c(NC(=O)c3ccccc3)nccc2c1C [Example 74, N-[7-(2,3-dimethyl-1H-pyrrolo[2,3-c]pyridyl)]benzamide]
The IC50 of the first is 130-fold lower: 0.014 µM for the first, 1.8 µM for the second. The first is the more potent here.

Cc1cc2ccnc(NCc3ccccc3)c2n1CC1CC1 [Example 5, N-benzyl-1-(cyclopropylmethyl)-2-methyl-1H-pyrrolo[2,3-c]pyridine-7-amine] and CCCn1c(C)cc2ccnc(NCc3ccccc3)c21 [Example 2, N-benzyl-2-methyl-1-propyl-1H-pyrrolo[2,3-c]pyridine-7-amine] are within 1.5-fold of each other in IC50: 1.2 µM for the first, 0.98 µM for the second.

Reference: patent publication US20180148446A1, “PYRROLO [2,3-c] PYRIDINE COMPOUND, PROCESS FOR PRODUCING THE SAME, AND USE” (Takeda Pharmaceutical Company Limited, priority 2004, published 2018)
